According to patent US20060216336A1, “Transdermal therapeutic system for Parkinson's Disease” (priority 2002, published 2006):

Test: Multiple dose trial with rotating patch application sites in early-stage Parkinson's disease: rotigotine pharmacokinetics (Example 4)
Conditions: human, in vivo; for concentration at […]: 23.5 H
Text: Each day, a fresh patch was placed on a new skin site (abdomen, flank, upper arm, shoulder, thigh, hip) in a rotating order. The silicone transdermal patches were made in accordance with the teachings of U.S. Patent Application Publication No. US 2003/0026830 at paragraphs 38-42, U.S. Patent Application Publication No. US 2003/0027793 at paragraphs 37-41 and U.S. Pat. No. 6,884,434, columns 5-6, Example 2 and comprised the following layers and components:
The trial consisted of an Eligibility Assessment (EA), a 24-day Titration Phase (4.5 to 18.0 mg/day doses; incremental increases of 4.5mg/day every 6 days), a 6-day Maintenance Phase (18.0 mg/day dose), a 6-day De-escalation Phase (13.5/9.0/4.5mg/day decreasing dose every 2 days), and a Safety Follow-Up visit 2 days following the last dose.
The silicone transdermal patches were made in accordance with the teachings of U.S. Patent Application Publication No. US 2003/0026830 at paragraphs 3842 and U.S. Patent Application Publication No. US 2003/0027793 at paragraphs 3741 comprised the following layers and components as disclosed above
The 18.0 mg/day dose used 2×20 cm^2 patches. Initial doses were 4.5 mg/day with weekly increases of 4.5 mg/day to a maximum target dose of 18.0 mg/day.

[1] = rotigotine plasma concentration Geo. Mean
[2] = rotigotine plasma concentration Max
[3] = rotigotine plasma concentration Mean
[4] = rotigotine plasma concentration Median
[5] = rotigotine plasma concentrations, Geo. Mean
[6] = rotigotine plasma concentrations, Mean
[7] = rotigotine plasma concentrations, Median

CCCN(CCc1cccs1)[C@H]1CCc2c(O)cccc2C1 [rotigotine, (6S)-6{propyl[2-(2-thienyl)ethyl]amino}-5,6,7,8-tetrahydro-1-naphthalenol]
concentration at […] (18 mg/day, rotigotine plasma concentration Min, Thigh, Days 27 & 30 Combined): 0.152 ng/mL
concentration at […] (18 mg/day, rotigotine plasma concentration Min, Upper Arm, Day 27): 0.129 ng/mL
concentration at […] (18 mg/day, rotigotine plasma concentration Min, Upper Arm, Day 30): 0.347 ng/mL
concentration at […] (18 mg/day, rotigotine plasma concentration Min, Upper Arm, Days 27 & 30 Combined): 0.129 ng/mL
concentration at […] (18 mg/day, rotigotine plasma concentrations, Geo. Mean, Application Site = Abdomen, Day 27): 0.806 ng/mL
concentration at […] (18 mg/day, rotigotine plasma concentrations, Geo. Mean, Application Site = Abdomen, Day 30): 0.545 ng/mL
concentration at […] (18 mg/day, rotigotine plasma concentrations, Geo. Mean, Application Site = Abdomen, Days 27 & 30 Combined): 0.676 ng/mL
concentration at 7 h (18 mg/day, rotigotine plasma concentrations, Geo. Mean, Application Site = Flank, Days 27 & 30 Combined, 7 H): 0.681 ng/mL
concentration at […] (18 mg/day, rotigotine plasma concentrations, Geo. Mean, Application Site = Flank, Days 27 & 30 Combined): 0.81 ng/mL
concentration at […] (18 mg/day, rotigotine plasma concentrations, Mean, Application Site = Abdomen, Day 27): 0.929 ng/mL
concentration at […] (18 mg/day, rotigotine plasma concentrations, Mean, Application Site = Abdomen, Day 30): 0.613 ng/mL
concentration at […] (18 mg/day, rotigotine plasma concentrations, Mean, Application Site = Abdomen, Days 27 & 30 Combined): 0.787 ng/mL
concentration at […] (18 mg/day, rotigotine plasma concentrations, Mean, Application Site = Flank, Days 27 & 30 Combined): 1.1 ng/mL
concentration at […] (18 mg/day, rotigotine plasma concentrations, Median, Application Site = Abdomen, Day 30): 0.415 ng/mL
concentration at […] (18 mg/day, rotigotine plasma concentrations, Median, Application Site = Abdomen, Days 27 & 30 Combined): 0.677 ng/mL
concentration at […] (18 mg/day, rotigotine plasma concentrations, Median, Application Site = Flank, Days 27 & 30 Combined): 0.714 ng/mL
AUC(0-t) (AUC 0-t, ss): 23.8 ng·h/mL
concentration at 27 day (Average Concentration): 0.882 ng/mL
concentration at 30 day (Average Concentration): 0.975 ng/mL
concentration at 5 h [1]: 0.971 ng/mL
concentration at 6 h [1]: 0.837 ng/mL
concentration at 7 h [1]: 0.993 ng/mL
concentration at 14 h [1]: 1.15 ng/mL
concentration at 16 h [1]: 1.15 ng/mL
concentration at 18 h [1]: 1.16 ng/mL
concentration at 20 h [1]: 1.14 ng/mL
concentration at 22 h [1]: 0.815 ng/mL
concentration at 10 h [2]: 1.98 ng/mL
concentration at 16 h [2]: 2.53 ng/mL
concentration at 18 h [2]: 3.25 ng/mL
concentration at 22 h [2]: 1.77 ng/mL
concentration at 6 h [3]: 0.911 ng/mL
concentration at 7 h [3]: 1.08 ng/mL
concentration at 10 h [3]: 1.17 ng/mL
concentration at 14 h [3]: 1.26 ng/mL
concentration at 16 h [3]: 1.28 ng/mL
concentration at 18 h [3]: 1.32 ng/mL
concentration at 20 h [3]: 1.4 ng/mL
concentration at 22 h [3]: 0.904 ng/mL
concentration at 5 h [4]: 0.956 ng/mL
concentration at 14 h [4]: 1.21 ng/mL
concentration at 16 h [4]: 1.06 ng/mL
concentration at 18 h [4]: 1.17 ng/mL
concentration at 20 h [4]: 1.04 ng/mL
concentration at 22 h [4]: 0.734 ng/mL
concentration at 10 h [5]: 0.816 ng/mL
concentration at 12 h [5]: 0.848 ng/mL
concentration at 14 h [5]: 0.84 ng/mL
concentration at 16 h [5]: 1 ng/mL
concentration at 18 h [5]: 1.01 ng/mL
concentration at 20 h [5]: 1.02 ng/mL
concentration at 22 h [5]: 0.91 ng/mL
concentration at 10 h [6]: 0.909 ng/mL
concentration at 12 h [6]: 0.911 ng/mL
concentration at 14 h [6]: 0.931 ng/mL
concentration at 16 h [6]: 1.07 ng/mL
concentration at 18 h [6]: 1.06 ng/mL
concentration at 20 h [6]: 1.08 ng/mL
concentration at 22 h [6]: 1.01 ng/mL
concentration at 10 h [7]: 0.766 ng/mL
concentration at 12 h [7]: 0.763 ng/mL
concentration at 14 h [7]: 0.816 ng/mL
concentration at 16 h [7]: 0.904 ng/mL
concentration at 18 h [7]: 1.08 ng/mL
concentration at 20 h [7]: 0.962 ng/mL
concentration at 22 h [7]: 0.804 ng/mL
